In patent US20060177448A1, “Inhibiting HER2 shedding with matrix metalloprotease antagonists” (Genentech, Inc., priority 2005, published 2006):

Assays:
Fo5 tumors = experiment: GM6001 injections in FVB mice with Fo5 xenograft tumors (serum HER2 ECD ELISA, p95 HER2 Western blot); assay type: in vivo, mouse; conditions: 100 mg/kg intraperitoneally daily for 3 days, day four
Source text: The Fo5 and f2: 1282 lines have been previously described (Finkle et al., Clin. Cancer Res. 10: 2499-2511 (2004)). These lines were derived from primary tumors from a MMTV HER2 transgenic mouse and passaged in the mammary fat pad of FVB mice.
Fo5 tumors were transplanted into FVB mice and allowed to grow to an average size of 400-600 mm^3 prior to initiating the study. GM6001 (3-[N-hydroxycarbomyl]-[2R]-isobutylpropionyl-L-tryptophan methylamide) was obtained from Calbiochem and reconstituted in a slurry of 4% carboxymethylcellulose/0.9% PBS and administered daily by intraperitoneal injection at 100 mg/kg body weight for 3 days. […] Tumors size was measured at day 0 and at day 4. […]
Serun from mice harboring Fo5 or f2: 1282 xenograft tumors was collected by cardiac puncture and HER2 ECD levels detected using a previously described HER2 ELISA (Finkle et al. Clin. Cancer Res. 10: 2499-2511 (2004)). […] The concentration of shed HER2 in serum or in conditioned media was determined from a four-parameter fit of a standard curve using purified recombinant HER2 ECD protein (Genentech) as a standard.
Fo5 and f2:1282 tumors were resuspended in lysis buffer with protease inhibitors and homogenized using a POLYTRON TISSUEMIZER™ (PT2 100) on ice. Tumor lysates were cleared of insoluble material by centrifugation and total protein levels were determined using a BCA protein assay kit. […]

SKBR-3 cells = experiment: HER2 ECD ELISA of conditioned media (HER2 shedding), SKBR-3 cells; assay type: cell-based, human
Description: BT 474, MCF-7, and SKBR-3 cells were maintained in high-glucose DMEM:Ham's F12 (50:50) supplemented with 10% heat-inactivated FBS and 2 mM L-Glutamine. […] Cell lines were maintained at 37° C. in a humidified incubator supplied with 5% CO2. BT 474 and SKBR-3 cells were transiently transfected with constructs as described by electroporation using kit V according to the manufacturer's instructions (AMAXA™).
Serum was diluted 1:50 using assay buffer (PBS/0.5% BSA, 0.05% TWEEN® 20/10 ppm PROCLIN® 300/0.2% BGG/0.25% CHAPS/0.15 M NaCl/5mM EDTA (pH 7.4) followed by additional 1:2 serial dilutions. Shed HER2 was captured using a goat anti-HER2 polyclonal antibody (Genentech) onto NUNC® Maxisorp plates and detected using a biotin-conjugated rabbit anti-HER2 polyclonal antibody (Genentech) followed by a AMDEX™-strepavidin-horseradish peroxidase antibody (Amersham Pharmacia Biotech) following a procedure described previously (Sias et al., J. Immunol. Meth. 109:219-27 (1990)). For cell culture experiments, cells were treated as indicated and conditioned media was collected and diluted in assay buffer serially 1:2. The concentration of shed HER2 in serum or in conditioned media was determined from a four-parameter fit of a standard curve using purified recombinant HER2 ECD protein (Genentech) as a standard.
The pSIREN shRNA construct(s) or vector alone were transiently transfected into SKBR-3 and BT 474 cells using AMAXA™ kit V following manufacturer's recommendations. After 48 hours, conditioned media was collected and assayed for shed HER2 by HER2 ELISA and the cells were lysed directly on the plate using 2×Sample buffer.

[1] = system: breast carcinoma cell lines; conditions: cited from earlier work

CNC(=O)[C@H](Cc1c[nH]c2ccccc12)NC(=O)[C@@H](CC(=O)NO)CC(C)C [GM6001, 3-[N-hydroxycarbomyl]-[2R]-isobutylpropionyl-L-tryptophan methylamide]
amount of p95 HER2 in tumor lysates compared to control animals (Fo5 tumors): significant reduction
serum HER2 ECD levels (Fo5 tumors; versus vehicle): greater reduction
inhibition of HER2 shedding (HER2 ECD ELISA) (SKBR-3 cells; dose response): dose dependently inhibited HER2 shedding

Timp-1: naturally occurring peptides that regulate metalloprotease activity
HER2 ECD levels in conditioned media (SKBR-3 cells; 1 μg/ml): reduced HER2 ECD levels

CNC(=O)[C@H](Cc1ccccc1)NC(=O)[C@H](CC(C)C)[C@H](CSc1cccs1)C(=O)NO [BB-94]
inhibition of HER2 ECD shedding [1]: inhibited HER2 ECD shedding
